Experimental data as given in the supplement of paper PMC6461962.

Tested on: Pseudomonas fluorescens FW300-N2E2
Details: medium / electron acceptor: N2E2 KB/aerobic
Method in brief: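 Washed cells (final OD600 0.02, 80 µL) were added to 384-well plates of serially diluted inorganic ion salts or equimolar nitrilotriacetic acid complexes. Aerobic plates were shaken at 700 rpm at 30 °C, and anaerobic plates were left unshaken. OD600 was read at 24 h (48 h for R2A strain comparisons) and scaled between water and growth-blocking antibiotic controls, dropping wells with precipitate. IC50 came from drc R package fits of at least two biological replicate curves.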

Question: With `[O-][Cl+3]([O-])([O-])O` [Sodium perchlorate monohydrate] as the compound, how does the IC50 growth inhibition read?
Answer: Its IC50 growth inhibition is 82 mM.

Question: Which IC50 growth inhibition does the source give for `[O-][I+3]([O-])([O-])O` [Sodium periodate] here?
Answer: Its IC50 growth inhibition is 0.326 mM.

Question: `O=P([O-])(O)O.[Na+]` [Sodium phosphate monobasic monohydrate] was tested. Which IC50 growth inhibition did it give?
Answer: The IC50 growth inhibition was 308 mM.

Question: For `OP(O)O` [Sodium phosphite dibasic pentahydrate], which IC50 growth inhibition is on record?
Answer: The IC50 growth inhibition was 2.03 mM.

Question: With `O=P(O)(O)OP(=O)(O)O` [Sodium pyrophosphate dibasic] as the compound, how does the IC50 growth inhibition read?
Answer: The IC50 growth inhibition was 1.78 mM.

Question: For `O=[Se](=O)([O-])[O-].[Na+].[Na+]` [Sodium selenate], which IC50 growth inhibition is on record?
Answer: The IC50 growth inhibition was 290 mM.

Question: Which IC50 growth inhibition does the source give for `O=[Se]([O-])[O-].[Na+].[Na+]` [Sodium selenite pentahydrate] here?
Answer: Its IC50 growth inhibition is < 0.244 mM.

Question: How did the IC50 growth inhibition turn out when `O.O.O.O.O.O.O.O.O.O.O=S(=O)([O-])[O-].[Na+].[Na+]` [Sodium sulfate] was run?
Answer: Its IC50 growth inhibition is > 500 mM.

Question: How did the IC50 growth inhibition turn out when `OP(O)(O)=S` [Sodium thiophosphate tribasic hydrate] was run?
Answer: The IC50 growth inhibition was 42.2 mM.

Question: `O=S(O)(O)=S` [Sodium thiosulfate] was tested. Which IC50 growth inhibition did it give?
Answer: The IC50 growth inhibition was 319 mM.

Question: For `O.O.[Na+].[Na+].[O]=[W](=[O])([O-])[O-]` [Sodium tungstate dihydrate], which IC50 growth inhibition is on record?
Answer: The IC50 growth inhibition was 1.17 mM.

Same assay, conditions: medium / electron acceptor: N2E2 LB/aerobic

Question: Which IC50 growth inhibition does the source give for `[O-][Cl+2]([O-])O` [Sodium Chlorate] here?
Answer: The IC50 growth inhibition was 24.5 mM.

Question: For `[Cl-].[Na+]` [Sodium Chloride], which IC50 growth inhibition is on record?
Answer: Its IC50 growth inhibition is 708 mM.

Question: With `[O-][Cl+]O` [Sodium Chlorite] as the compound, how does the IC50 growth inhibition read?
Answer: The IC50 growth inhibition was 0.0105 mM.

Question: How did the IC50 growth inhibition turn out when `O.O.O.O.O.O.O.O=[As]([O-])([O-])O.[Na+].[Na+]` [Sodium arsenate dibasic heptahydrate] was run?
Answer: The IC50 growth inhibition was < 0.244 mM.

Question: Which IC50 growth inhibition does the source give for `OCl` [Sodium hypochlorite] here?
Answer: The IC50 growth inhibition was > 5 mM.

Question: How did the IC50 growth inhibition turn out when `O=P[O-].[Na+]` [Sodium hypophosphite monohydrate] was run?
Answer: Its IC50 growth inhibition is 354 mM.

Question: For `O=[Si](O)O` [Sodium metasilicate], which IC50 growth inhibition is on record?
Answer: Its IC50 growth inhibition is < 0.244 mM.

Question: For `[Na+].[O]=[V](=[O])[O-]` [Sodium metavanadate], which IC50 growth inhibition is on record?
Answer: Its IC50 growth inhibition is 3.26 mM.

Question: How did the IC50 growth inhibition turn out when `[Na+].[Na+].[O]=[Mo](=[O])([O-])[O-]` [Sodium molybdate] was run?
Answer: The IC50 growth inhibition was 369 mM.

Question: How did the IC50 growth inhibition turn out when `O=[N+]([O-])[O-].[Na+]` [Sodium nitrate] was run?
Answer: The IC50 growth inhibition was 354 mM.

Question: Which IC50 growth inhibition does the source give for `O=NO` [Sodium nitrite] here?
Answer: Its IC50 growth inhibition is 22.8 mM.

Question: For `[O-][Cl+3]([O-])([O-])O` [Sodium perchlorate monohydrate], which IC50 growth inhibition is on record?
Answer: The IC50 growth inhibition was 95 mM.

Question: For `[O-][I+3]([O-])([O-])O` [Sodium periodate], which IC50 growth inhibition is on record?
Answer: Its IC50 growth inhibition is 0.813 mM.

Question: With `O=P([O-])(O)O.[Na+]` [Sodium phosphate monobasic monohydrate] as the compound, how does the IC50 growth inhibition read?
Answer: Its IC50 growth inhibition is 307 mM.

Question: With `OP(O)O` [Sodium phosphite dibasic pentahydrate] as the compound, how does the IC50 growth inhibition read?
Answer: Its IC50 growth inhibition is 354 mM.

Question: With `O=P(O)(O)OP(=O)(O)O` [Sodium pyrophosphate dibasic] as the compound, how does the IC50 growth inhibition read?
Answer: Its IC50 growth inhibition is 36.1 mM.

Question: With `O=[Se](=O)([O-])[O-].[Na+].[Na+]` [Sodium selenate] as the compound, how does the IC50 growth inhibition read?
Answer: Its IC50 growth inhibition is 354 mM.

Question: How did the IC50 growth inhibition turn out when `O=[Se]([O-])[O-].[Na+].[Na+]` [Sodium selenite pentahydrate] was run?
Answer: The IC50 growth inhibition was < 0.244 mM.

Question: How did the IC50 growth inhibition turn out when `O.O.O.O.O.O.O.O.O.O.O=S(=O)([O-])[O-].[Na+].[Na+]` [Sodium sulfate] was run?
Answer: The IC50 growth inhibition was 455 mM.

Question: `OP(O)(O)=S` [Sodium thiophosphate tribasic hydrate] was tested. Which IC50 growth inhibition did it give?
Answer: The IC50 growth inhibition was > 50 mM.

Question: `O=S(O)(O)=S` [Sodium thiosulfate] was tested. Which IC50 growth inhibition did it give?
Answer: The IC50 growth inhibition was 363 mM.

Question: `O.O.[Na+].[Na+].[O]=[W](=[O])([O-])[O-]` [Sodium tungstate dihydrate] was tested. Which IC50 growth inhibition did it give?
Answer: The IC50 growth inhibition was 0.539 mM.

Same assay, conditions: medium / electron acceptor: N2E2 LB/aerobic (2)

Question: `[O-][Cl+2]([O-])O` [Sodium Chlorate] was tested. Which IC50 growth inhibition did it give?
Answer: The IC50 growth inhibition was 54.4 mM.

Question: With `[Cl-].[Na+]` [Sodium Chloride] as the compound, how does the IC50 growth inhibition read?
Answer: Its IC50 growth inhibition is 718 mM.

Question: With `[O-][Cl+]O` [Sodium Chlorite] as the compound, how does the IC50 growth inhibition read?
Answer: The IC50 growth inhibition was < 0.00244 mM.

Question: Which IC50 growth inhibition does the source give for `O.O.O.O.O.O.O.O=[As]([O-])([O-])O.[Na+].[Na+]` [Sodium arsenate dibasic heptahydrate] here?
Answer: The IC50 growth inhibition was < 0.244 mM.

Question: How did the IC50 growth inhibition turn out when `OCl` [Sodium hypochlorite] was run?
Answer: Its IC50 growth inhibition is > 5 mM.

Question: `O=P[O-].[Na+]` [Sodium hypophosphite monohydrate] was tested. Which IC50 growth inhibition did it give?
Answer: The IC50 growth inhibition was > 500 mM.

Question: How did the IC50 growth inhibition turn out when `O=[Si](O)O` [Sodium metasilicate] was run?
Answer: The IC50 growth inhibition was < 0.244 mM.

Question: How did the IC50 growth inhibition turn out when `[Na+].[O]=[V](=[O])[O-]` [Sodium metavanadate] was run?
Answer: Its IC50 growth inhibition is 13.4 mM.

Question: With `[Na+].[Na+].[O]=[Mo](=[O])([O-])[O-]` [Sodium molybdate] as the compound, how does the IC50 growth inhibition read?
Answer: Its IC50 growth inhibition is 354 mM.

Question: `O=[N+]([O-])[O-].[Na+]` [Sodium nitrate] was tested. Which IC50 growth inhibition did it give?
Answer: Its IC50 growth inhibition is 383 mM.

Question: `O=NO` [Sodium nitrite] was tested. Which IC50 growth inhibition did it give?
Answer: The IC50 growth inhibition was 41.6 mM.

Question: For `[O-][Cl+3]([O-])([O-])O` [Sodium perchlorate monohydrate], which IC50 growth inhibition is on record?
Answer: The IC50 growth inhibition was 106 mM.

Question: With `[O-][I+3]([O-])([O-])O` [Sodium periodate] as the compound, how does the IC50 growth inhibition read?
Answer: Its IC50 growth inhibition is 2.35 mM.

Question: For `O=P([O-])(O)O.[Na+]` [Sodium phosphate monobasic monohydrate], which IC50 growth inhibition is on record?
Answer: The IC50 growth inhibition was 354 mM.

Question: `OP(O)O` [Sodium phosphite dibasic pentahydrate] was tested. Which IC50 growth inhibition did it give?
Answer: Its IC50 growth inhibition is 354 mM.

Question: `O=P(O)(O)OP(=O)(O)O` [Sodium pyrophosphate dibasic] was tested. Which IC50 growth inhibition did it give?
Answer: The IC50 growth inhibition was 25.4 mM.

Question: For `O=[Se](=O)([O-])[O-].[Na+].[Na+]` [Sodium selenate], which IC50 growth inhibition is on record?
Answer: The IC50 growth inhibition was 300 mM.

Question: `O=[Se]([O-])[O-].[Na+].[Na+]` [Sodium selenite pentahydrate] was tested. Which IC50 growth inhibition did it give?
Answer: The IC50 growth inhibition was < 0.244 mM.

Question: With `O.O.O.O.O.O.O.O.O.O.O=S(=O)([O-])[O-].[Na+].[Na+]` [Sodium sulfate] as the compound, how does the IC50 growth inhibition read?
Answer: Its IC50 growth inhibition is > 500 mM.

Question: `OP(O)(O)=S` [Sodium thiophosphate tribasic hydrate] was tested. Which IC50 growth inhibition did it give?
Answer: The IC50 growth inhibition was 33.1 mM.

Question: How did the IC50 growth inhibition turn out when `O=S(O)(O)=S` [Sodium thiosulfate] was run?
Answer: Its IC50 growth inhibition is 360 mM.

Question: Which IC50 growth inhibition does the source give for `O.O.[Na+].[Na+].[O]=[W](=[O])([O-])[O-]` [Sodium tungstate dihydrate] here?
Answer: Its IC50 growth inhibition is 20.5 mM.

Same assay, conditions: medium / electron acceptor: N2E2 LB/nitrate

Question: `[O-][Cl+2]([O-])O` [Sodium Chlorate] was tested. Which IC50 growth inhibition did it give?
Answer: The IC50 growth inhibition was 4.33 mM.

Question: With `[Cl-].[Na+]` [Sodium Chloride] as the compound, how does the IC50 growth inhibition read?
Answer: The IC50 growth inhibition was 622 mM.

Question: For `[O-][Cl+]O` [Sodium Chlorite], which IC50 growth inhibition is on record?
Answer: Its IC50 growth inhibition is 0.00287 mM.

Question: For `O.O.O.O.O.O.O.O=[As]([O-])([O-])O.[Na+].[Na+]` [Sodium arsenate dibasic heptahydrate], which IC50 growth inhibition is on record?
Answer: The IC50 growth inhibition was 5.13 mM.

Question: For `OCl` [Sodium hypochlorite], which IC50 growth inhibition is on record?
Answer: Its IC50 growth inhibition is 0.534 mM.
